Results taken from US20220340629A1, “Myosin Derived Peptides and Related Compounds with Anticoagulant Activities” (THE SCRIPPS RESEARCH INSTITUTE, priority 0001, published 2022).
One block for each molecule: values may come before it. Starred links: 1 amine or outer side, 2 acyl side, 3 side chain; linkers in the order of their positions; H or OH if unused. Positions of bridges follow the written chain, without caps; N, C: chain ends. Non-standard residues stand in square brackets, D forms with d. Residues, ends and D or L forms follow the SMILES beside them. NMeH = CN[C@@H](Cc1c[nH]cn1)C(=O)O; Suc = O=C(CCC(=O)[*:2])[*:1]; Nle = CCCC[C@H](N)C(=O)O

Tests used:
[1] = test system: skeletal muscle myosin-supported prothrombin activation by factors Xa and Va; experiment: Assay 1A: prothrombin activation by factor Xa/factor Va/myosin in purified system; type: biochemical, human factors Xa and Va; rabbit skeletal muscle myosin; details: for inhibition of myosin's procoagulant activity: data not shown; for inhibition of myosin-supported prothrombin activation at 100 μM: peptide 100 μM, FIG. 1A
[2] = test system: thrombin generation in human platelet poor plasma with skeletal muscle myosin; experiment: Assay 2A: thrombin generation, recalcification of human platelet poor plasma + myosin; type: biochemical; details: human platelet poor plasma 30%, myosin 50 nM, CaCl2 10 mmol/L; read-out: 2A (recalcification +myosin)
Description: Activities of the various peptides and derivative compounds were also examined via assays using recalcification of human plasma. [One of] these assay format (2A) involves monitoring thrombin generation in platelet poor plasma (PPP). Specifically, pooled normal human platelet poor plasma (PPP) (obtained from George King Bio Medical Inc., Overland Park, Kans.) (30%) was incubated with skeletal muscle myosin at 50 nM in the presence of peptide in DMSO or DMSO alone for 5 min at 37° C. Then, fluorogenic thrombin substrate solution (Z-Gly-Gly-Arg-AMC) (I-1140) with CaCl2 (10 mmol/L final) alone was added to the reaction mixture (total 110 μl) to initiate coagulation. Thrombin generation was followed continuously for 25 min using SPECTRAmax GEMINI XS fluorometer (Molecular Devices, Sunnyvale, Calif.) with excitation and emission wavelengths set at 360 and 460 nm, respectively. The first derivative of fluorescence versus time was used to produce thrombin generation curves with the correction for substrate consumption and inner filter effect. For this assay 96 well plate (total 110 μL) or 384 well plates (total 30 μL) were used.
Activities obtained from Assay 2A (recalcification of human plasma in the presence of myosin) were used to rank the various peptides listed in Table 3. As noted above, this assay monitors recalcification of plasma to stimulate thrombin generation. In this assay, potency of the compounds was determined as the peptide concentration for 50% inhibition of thrombin generation, defined as “IC50”.

[3] = target: skeletal muscle myosin-supported prothrombin activation by factors Xa and Va (Homo sapiens, UniProt P00742); experiment: Assay 1A: prothrombin activation by factor Xa/factor Va/myosin in purified system; type: biochemical, human factors Xa and Va; rabbit skeletal muscle myosin; details: purified system, prothrombin activation with myosin; read-out: 1A (+ myosin) IC50
Chain of skeletal muscle myosin-supported prothrombin activation by factors Xa and Va (Homo sapiens, UniProt P00742) (P00742 41-179): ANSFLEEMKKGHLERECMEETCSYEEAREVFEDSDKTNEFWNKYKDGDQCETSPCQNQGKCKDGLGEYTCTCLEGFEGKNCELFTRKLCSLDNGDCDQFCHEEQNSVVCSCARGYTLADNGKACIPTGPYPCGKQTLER
Chain of skeletal muscle myosin-supported prothrombin activation by factors Xa and Va (Homo sapiens, UniProt P00742) (P00742 235-488): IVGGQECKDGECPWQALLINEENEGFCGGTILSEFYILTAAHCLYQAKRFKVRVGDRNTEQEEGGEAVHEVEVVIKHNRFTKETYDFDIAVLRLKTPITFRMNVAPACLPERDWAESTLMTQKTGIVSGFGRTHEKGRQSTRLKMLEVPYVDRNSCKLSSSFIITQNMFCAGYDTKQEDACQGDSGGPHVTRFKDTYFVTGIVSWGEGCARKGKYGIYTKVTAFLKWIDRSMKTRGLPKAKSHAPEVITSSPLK
Chain of skeletal muscle myosin-supported prothrombin activation by factors Xa and Va (Homo sapiens, UniProt P00742) (P12259 29-737 partner): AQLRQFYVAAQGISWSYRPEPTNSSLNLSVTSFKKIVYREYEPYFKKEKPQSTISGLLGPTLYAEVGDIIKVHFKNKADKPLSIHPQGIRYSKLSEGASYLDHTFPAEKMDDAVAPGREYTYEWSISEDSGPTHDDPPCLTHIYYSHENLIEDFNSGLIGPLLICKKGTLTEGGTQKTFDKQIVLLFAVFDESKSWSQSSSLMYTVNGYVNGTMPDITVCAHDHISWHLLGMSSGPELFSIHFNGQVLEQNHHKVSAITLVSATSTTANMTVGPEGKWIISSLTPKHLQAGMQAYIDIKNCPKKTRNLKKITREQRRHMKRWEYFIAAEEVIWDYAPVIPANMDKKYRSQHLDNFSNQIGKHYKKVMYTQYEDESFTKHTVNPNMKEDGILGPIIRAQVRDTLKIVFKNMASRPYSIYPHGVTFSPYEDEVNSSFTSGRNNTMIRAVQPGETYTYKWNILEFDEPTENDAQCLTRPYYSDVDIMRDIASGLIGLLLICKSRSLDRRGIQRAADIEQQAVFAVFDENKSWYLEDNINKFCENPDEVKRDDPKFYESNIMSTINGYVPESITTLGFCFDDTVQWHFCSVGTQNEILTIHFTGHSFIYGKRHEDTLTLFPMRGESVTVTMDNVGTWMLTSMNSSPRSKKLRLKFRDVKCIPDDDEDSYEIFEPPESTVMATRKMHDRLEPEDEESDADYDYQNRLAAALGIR
Chain of skeletal muscle myosin-supported prothrombin activation by factors Xa and Va (Homo sapiens, UniProt P00742) (P12259 1574-2224 partner): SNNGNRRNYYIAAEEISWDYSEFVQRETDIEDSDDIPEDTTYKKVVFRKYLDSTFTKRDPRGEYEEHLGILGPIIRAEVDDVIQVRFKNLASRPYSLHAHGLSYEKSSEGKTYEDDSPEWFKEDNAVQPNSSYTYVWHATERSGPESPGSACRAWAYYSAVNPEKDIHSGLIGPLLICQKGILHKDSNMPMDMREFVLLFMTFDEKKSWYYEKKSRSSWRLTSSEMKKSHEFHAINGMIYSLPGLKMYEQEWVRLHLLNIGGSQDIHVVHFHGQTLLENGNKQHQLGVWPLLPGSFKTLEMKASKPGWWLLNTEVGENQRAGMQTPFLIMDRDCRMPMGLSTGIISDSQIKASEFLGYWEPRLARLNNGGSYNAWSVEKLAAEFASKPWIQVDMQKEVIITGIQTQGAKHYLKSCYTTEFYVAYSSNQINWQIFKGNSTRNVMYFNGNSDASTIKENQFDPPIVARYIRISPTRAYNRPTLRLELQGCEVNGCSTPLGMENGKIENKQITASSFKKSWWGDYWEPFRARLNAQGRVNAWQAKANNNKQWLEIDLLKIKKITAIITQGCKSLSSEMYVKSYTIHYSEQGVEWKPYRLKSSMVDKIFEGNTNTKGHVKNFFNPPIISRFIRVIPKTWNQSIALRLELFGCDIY

Molecule: Cc1ccc2c(c1)C(=O)C1(O)CCN(c3ccccc3)C1=N2 (single isomer, unassigned; (-)) [(-) blebbistatin, reference compound]
inhibition of myosin's procoagulant activity ([1]; up to 65 μM): did not inhibit

Molecule: Cc1ccc(S(=O)(=O)NCc2ccccc2)cc1 [N-benzyl-p-toluene sulfonamide, reference compound]
inhibition of myosin's procoagulant activity ([1]; up to 0.7 mM): did not inhibit

Molecule: CN1CCN(CCCN2c3ccccc3Sc3ccc(C(F)(F)F)cc32)CC1 [TFP, trifluoperazine, reference compound]
inhibition of myosin-supported prothrombin activation ([1]; dose-dependent studies, FIG. 4, TFP 0-100 μM, ELC peptides 0-300 μM): inhibits

Molecule: COC(=O)N1CCN(Cc2cccc(NC(=O)Nc3ccc(C)nc3)c2F)CC1 [omecamtiv mecarbil, reference compound]
inhibition of myosin's procoagulant activity ([1]; up to 50 μM): did not inhibit

Molecule: Ac-GAELRHVLATLGEKMKEEEVEALMA-NH (Ac-GAELRHVLATLGEKMKEEEVEALMA-NH2) [ELC149-173]
inhibition of myosin-supported prothrombin activation at 100 μM [1]: did not

Molecule: Ac-SNEELNAKKIEFEQFLPMMQAISN-NH2 [ELC99-122]
inhibition of myosin-supported prothrombin activation at 100 μM [1]: did not

Molecule: QEEIKNMWAAFPPDVGGNVDYKNICYVITH (Ac-QEEIKNMWAAFPPDVGGNVDYKNICYVITH-NH2) [RLC133-162]
IC50 [3]: 25 µM

Molecule: RVFDKEGNGTVMGAELRHVL (Ac-RVFDKEGNGTVMGAELRHVL-NH2) [ELC138-157]
IC50 [3]: 75 µM

Molecule: YEDFVEGLRVFDKEGN (Ac-YEDFVEGLRVFDKEGN-NH2) [ELC129-144]
IC50 [3]: ~70 µM

Further lines, results first:

IC50 [2]: 15 µM
Molecule: CC[C@H](C)[C@H](NC(=O)[C@H](C)NC(=O)[C@H](CCC(=O)O)NC(=O)[C@H](CCCNC(=N)N)NC(=O)[C@H](CCCNC(=N)N)NC(=O)[C@H](CCC(=O)O)NC(=O)[C@@H](NC(=O)[C@H](CCSC)NC(=O)[C@H](CCCNC(=N)N)NC(=O)[C@H](CCC(N)=O)NC(=O)[C@H](Cc1ccc(O)cc1)NC(=O)[C@H](CCC(=O)O)NC(=O)[C@@H](NC(=O)[C@H](CCCNC(=N)N)NC(=O)[C@H](C)NC(=O)[C@H](CC(C)C)NC(=O)[C@H](Cc1ccccc1)NC(=O)CNC(=O)[C@H](CCCNC(=N)N)NC(=O)[C@H](CS)NC(=O)[C@H](CCCNC(=N)N)NC(=O)[C@H](C)N)C(C)C)C(C)C)C(=O)N[C@@H](Cc1ccccc1)C(=O)N[C@@H](CS)C(=O)N[C@H](C(=O)N[C@@H](CCC(N)=O)C(=O)N[C@H]1CCCCNC(=O)CCC(=O)NCCCC[C@@H](C(=O)N[C@H](C(=O)N[C@@H](CCCCN)C(=O)N[C@@H](Cc2c[nH]cn2)C(=O)N[C@@H](Cc2c[nH]c3ccccc23)C(=O)N2CCC[C@H]2C(=O)N[C@@H](Cc2c[nH]c3ccccc23)C(N)=O)C(C)C)NC(=O)[C@H](CCSC)NC(=O)[C@H](Cc2ccccc2)NC(=O)[C@H](CO)NC(=O)[C@H](CCCNC(=N)N)NC(=O)[C@H]([C@@H](C)CC)NC(=O)[C@H](CC(N)=O)NC1=O)[C@@H](C)CC [HC077] (H-ARCRGFLARVEYQRMVERREAIFCIQKNIRSFMKVKHWPW-NH2; linker 27-34 via Suc; N-terminus and C-terminus assumed)

IC50 [2]: 10 µM
Molecule: CCCC[C@H](NC(=O)[C@H](Cc1ccccc1)NC(=O)[C@H](CO)NC(=O)[C@H](CCCNC(=N)N)NC(=O)[C@@H](NC(=O)[C@H](CC(N)=O)NC(=O)[C@H](Cc1ccc(O)cc1)NC(=O)[C@H](CCC(N)=O)NC(=O)[C@@H](NC(=O)[C@H](CS)NC(=O)[C@H](Cc1ccccc1)NC(=O)[C@@H](NC(=O)[C@H](C)NC(=O)[C@H](CCC(=O)O)NC(=O)[C@H](CCCNC(=N)N)NC(=O)[C@H](CCCNC(=N)N)NC(=O)[C@H](CCC(=O)O)NC(=O)[C@@H](NC(=O)[C@H](CCCC)NC(=O)[C@H](CCCNC(=N)N)NC(=O)[C@H](CCC(N)=O)NC(=O)[C@H](Cc1ccc(O)cc1)NC(=O)[C@H](CCC(=O)O)NC(=O)[C@@H](NC(=O)[C@H](CCCNC(=N)N)NC(=O)[C@H](C)NC(=O)[C@H](CC(C)C)NC(=O)[C@H](Cc1ccccc1)NC(=O)CNC(=O)[C@H](CCCNC(=N)N)NC(=O)[C@H](CS)NC(=O)[C@H](CCCNC(=N)N)NC(=O)[C@H](C)N)C(C)C)C(C)C)[C@@H](C)CC)[C@@H](C)CC)[C@@H](C)CC)C(=O)N[C@@H](CC(N)=O)C(=O)N[C@H](C(=O)N[C@@H](CCCCN)C(=O)N[C@@H](Cc1c[nH]cn1)C(=O)N[C@@H](Cc1c[nH]c2ccccc12)C(=O)N1CCC[C@H]1C(=O)N[C@@H](Cc1c[nH]c2ccccc12)C(N)=O)C(C)C [HC095] (H-ARCRGFLARVEYQR[Nle]VERREAIFCIQYNIRSF[Nle]NVKHWPW-NH2; N-terminus and C-terminus assumed)

IC50 [2]: 9 µM
Molecule: CC[C@H](C)[C@H](NC(=O)[C@H](C)N)C(=O)N[C@@H](Cc1ccccc1)C(=O)N[C@@H](CS)C(=O)N[C@H](C(=O)N[C@@H](CCC(N)=O)C(=O)N[C@@H](Cc1ccc(O)cc1)C(=O)N[C@@H](CC(N)=O)C(=O)N[C@H](C(=O)N[C@@H](CCCNC(=N)N)C(=O)N[C@@H](CO)C(=O)N[C@@H](Cc1ccccc1)C(=O)N[C@@H](CCSC)C(=O)N[C@@H](CC(N)=O)C(=O)N[C@H](C(=O)N[C@@H](CCCCN)C(=O)N[C@@H](Cc1c[nH]cn1)C(=O)N[C@@H](Cc1c[nH]c2ccccc12)C(=O)N1CCC[C@H]1C(=O)N[C@@H](Cc1c[nH]c2ccccc12)C(=O)N[C@@H](CCSC)C(=O)N[C@@H](CCCCN)C(=O)N[C@@H](CC(C)C)C(=O)N[C@@H](Cc1ccccc1)C(=O)N[C@@H](Cc1ccccc1)C(=O)N[C@@H](CCCCN)C(=O)N[C@H](C(=O)N[C@@H](CCCCN)C(N)=O)[C@@H](C)CC)C(C)C)[C@@H](C)CC)[C@@H](C)CC [HC101] (H-AIFCIQYNIRSFMNVKHWPWMKLFFKIK-NH2; N-terminus and C-terminus assumed)

IC50 [2]: 11 µM
Molecule: CC[C@H](C)[C@H](NC(=O)[C@H](C)NC(=O)[C@H](CCC(=O)O)NC(=O)[C@H](CCCNC(=N)N)NC(=O)[C@H](CCCNC(=N)N)NC(=O)[C@H](CCC(=O)O)NC(=O)[C@@H]1CCCCNC(=O)CCC(=O)NCCCC[C@@H]2NC(=O)[C@H](C)NC(=O)[C@H](CC(C)C)NC(=O)[C@H](Cc3ccccc3)NC(=O)CNC(=O)[C@H](CCCNC(=N)N)NC(=O)[C@@H](NC(=O)[C@H](CCCNC(=N)N)NC(=O)[C@H](C)N)CCCCNC(=O)CCC(=O)NCCCC[C@H](NC2=O)C(=O)N[C@@H](CCC(=O)O)C(=O)N[C@@H](Cc2ccc(O)cc2)C(=O)N[C@@H](CCC(N)=O)C(=O)N[C@@H](CCCNC(=N)N)C(=O)N[C@@H](CCSC)C(=O)N1)C(=O)N[C@@H](Cc1ccccc1)C(=O)N[C@@H](CS)C(=O)N[C@H](C(=O)N[C@@H](CCC(N)=O)C(=O)N[C@@H](Cc1ccc(O)cc1)C(=O)N[C@@H](CC(N)=O)C(=O)N[C@H](C(=O)N[C@@H](CCCNC(=N)N)C(=O)N[C@@H](CO)C(=O)N[C@@H](Cc1ccccc1)C(=O)N[C@@H](CCSC)C(=O)N[C@@H](CC(N)=O)C(=O)N[C@H](C(=O)N[C@@H](CCCCN)C(=O)N[C@@H](Cc1c[nH]cn1)C(=O)N[C@@H](Cc1c[nH]c2ccccc12)C(=O)N1CCC[C@H]1C(=O)N[C@@H](Cc1c[nH]c2ccccc12)C(N)=O)C(C)C)[C@@H](C)CC)[C@@H](C)CC [HC153] (H-ARKRGFLAKKEYQRMKERREAIFCIQYNIRSFMNVKHWPW-NH2; linker 3-10, 9-16 via Suc (inferred); N-terminus and C-terminus assumed)

IC50 [3]: 1.4 µM
Molecule: CCCC[C@H](NC(=O)[C@H](Cc1c[nH]c2ccccc12)NC(=O)[C@@H]1CCCN1C(=O)[C@H](Cc1c[nH]c2ccccc12)NC(=O)[C@H](Cc1c[nH]cn1)N(C)C(=O)[C@H](CCCCN)NC(=O)[C@@H](NC(=O)[C@H](CC(N)=O)NC(=O)[C@H](CCCC)NC(=O)[C@H](Cc1ccccc1)NC(=O)[C@H](CO)NC(=O)[C@H](CCCNC(=N)N)NC(=O)[C@@H](NC(=O)[C@H](CC(N)=O)NC(=O)[C@H](Cc1ccc(O)cc1)NC(=O)[C@H](CCC(N)=O)NC(=O)[C@@H](NC(=O)[C@H](CS)NC(=O)[C@H](Cc1ccccc1)NC(=O)[C@@H](NC(=O)[C@H](C)N)[C@@H](C)CC)[C@@H](C)CC)[C@@H](C)CC)C(C)C)C(=O)N[C@@H](CCCCN)C(N)=O [HC200] (H-AIFCIQYNIRSF[Nle]NVK[NMeH]WPW[Nle]K-NH2; N-terminus assumed)
